Results reported in patent publication US6335350B1, “Acetamide and substituted acetamide-containing thiourea inhibitors of herpes viruses” (American Home Products Corporation, priority 1998, dated 2002).
Converted amounts (≈) assume the structure as drawn.

What was measured:
VZV strain Ellen = assay: VZV Antiviral (ELISA) Assay; type: cell-based, varicella-zoster virus; settings: human foreskin fibroblast cells; for IC50 / inhibition at 10 µg/mL: Human alphaherpesvirus 3, Fibroblast; for IC50: read-out: IC50 Ug/ml VZV; for inhibition at 10 µg/mL: read-out: % inhibition 10 ug/ml VZV, 10 ug/ml
Method in brief: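 Cell-based ELISA: infected/uninfected HFF mix (VZV Ellen, MOI <0.1) exposed to compound in DMEM/2% FBS for 3 days at 37° C. Anti-gpII monoclonal plus β-galactosidase-linked secondary, detected as 4-methylumbelliferone fluorescence; IC50 derived by comparing fluorescence with versus without compound.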

HSV-1 = assay: HSV Antiviral (ELISA) Assay; type: cell-based, herpes simplex virus type 1; settings: Vero cells, HSV-1; for IC50: Human alphaherpesvirus 1, Vero, read-out: IC50 Ug/ml HSV
Method in brief: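 Replication measured as glycoprotein D signal in fixed cells: anti-gD antibody plus β-galactosidase-linked secondary, fluorogenic substrate read at 365/450 nm. Vero cells (2% FBS DMEM) received compound 30 min pre-infection, HSV-1 MOI 0.006, ~24 h incubation; IC50 relative to no-compound fluorescence.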

HCMV wild-type = assay: HCMV yield assay; type: cell-based, human cytomegalovirus; settings: human foreskin fibroblasts; for IC50: Human betaherpesvirus 5, Fibroblast, read-out: IC50 Ug/ml HCMV
Method in brief: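 Value is the compound amount cutting virus yield titer by 50% (IC50) or 90% (IC90). Human foreskin fibroblasts infected with wild-type HCMV (MOI typically 0.2) under varying compound; progeny harvested day 3, titered compound-free on fibroblasts, plaques scored at 2 weeks.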

Molecule | IC50 (VZV strain Ellen) | inhibition at 10 µg/mL (VZV strain Ellen) | IC50 (HSV-1) | IC50 (HCMV wild-type) | % inhibition 10 ug/ml VZV (VZV strain Ellen) | IC50 Ug/ml VZV (VZV strain Ellen) | IC50 Ug/ml HSV (HSV-1) | IC50 Ug/ml HCMV (HCMV wild-type)
CC(=O)Nc1ccc(NC(=S)Nc2ccc(NCCN(C)C)c(Cl)c2)cc1 [Example 316, N-(4-{3-[3-Chloro-4-(2-dimethylamino-ethylamino)-phenyl]-thioureido}-phenyl)-acetamide] | > 10 µg/mL | 56% | 30 µg/mL (≈ 73.9 µM) | > 50 µg/mL |  |  |  | 
CC(=O)Nc1ccc(NC(=S)Nc2cc(Cl)c(OCCOC(C)=O)c(Cl)c2)cc1 [Example 897, Acetic acid 2-{4-[3-(4-acetylamino-phenyl)-thioureido]-2,6-dichloro-phenoxy}-ethyl ester] | > 10 µg/mL | 33% | 40 µg/mL (≈ 87.7 µM) | > 10 µg/mL |  |  |  | 
CC(=O)Nc1ccc(NC(=S)Nc2ccc(NC3CCCCC3)c(Cl)c2)cc1 [Example 299, N-{4-[3-(3-Chloro-4-cyclohexylamino-phenyl)-thioureido]-phenyl}-acetamide] | 3.8 µg/mL (≈ 9.11 µM) | 72% | > 10 µg/mL | 6 µg/mL (≈ 14.4 µM) |  |  |  | 
COc1c(NC(=S)Nc2ccc(NC(C)=O)cc2)cc(Cl)c(C)c1Cl [Example 152, N-{4-[3-(3,5-Dichloro-2-methoxy-4-methyl-phenyl)-thioureido]-phenyl}-acetamide] |  |  |  |  | 70% | 7.5 Ug/ml | 2 Ug/ml | 0.8 Ug/ml
CCC(C)Oc1ccc(NC(=S)Nc2ccc(NC(C)=O)cc2)cc1Cl (centres unmarked) [Example 252, N-{4-[3-(4-sec-Butoxy-3-chloro-phenyl)-thioureido]-phenyl}-acetamide] | > 10 µg/mL | 0% | 10 µg/mL (≈ 25.5 µM) | 10 µg/mL (≈ 25.5 µM) |  |  |  | 
COc1cc(OC)c(NC(=S)Nc2ccc(NC(C)=O)c(C(=O)O)c2)cc1Cl [Example 337, 2-Acetylamino-5-[3-(5-chloro-2,4-dimethoxy-phenyl)-thioureido]-benzoic acid] | > 10 µg/mL | 31% | > 50 µg/mL | > 50 µg/mL |  |  |  | 
CC(=O)Nc1ccc(NC(=S)Nc2ccc(NCc3ccccc3)c(Cl)c2)cc1 [Example 241, N-{4-[3-(4-Benzylamino-3-chloro-phenyl)-thioureido]-phenyl}-acetamide] | > 10 µg/mL | 24% | 10 µg/mL (≈ 23.5 µM) | 2 µg/mL (≈ 4.71 µM) |  |  |  | 
COc1cc(OC)c(NC(=S)Nc2ccc(N(C)C(C)=O)cc2)cc1Cl [Example 99, N-{4-[3-(5-Chloro-2,4-dimethoxy-phenyl)-thioureido]-phenyl}-N-methyl-acetamide] | > 10 µg/mL | 2% | 50 µg/mL (≈ 127 µM) | > 50 µg/mL |  |  |  | 
CC(=O)Nc1ccc(NC(=S)Nc2ccc(OC3CCN(C)C3)c(Cl)c2)cc1 (centres unmarked) [Example 334, N-(4-{3-[3-Chloro-4-(1-methyl-pyrrolidin-3-yloxy)-phenyl]-thioureido}-phenyl)-acetamide] | > 10 µg/mL | 7% | 35 µg/mL (≈ 83.5 µM) | 18 µg/mL (≈ 43 µM) |  |  |  | 
COc1cc(OC)c(NC(=S)Nc2ccc(NC(C)=O)cc2C(F)(F)F)cc1Cl [Example 358, N-{4-[3-(5-Chloro-2,4-dimethoxy-phenyl)-thioureido]-3-trifluoromethyl-phenyl}-acetamide] | > 10 µg/mL | 31% | 2 µg/mL (≈ 4.47 µM) | > 10 µg/mL |  |  |  | 
COc1cc(OCC(=O)OC(C)(C)C)c(Cl)cc1NC(=S)Nc1ccc(NC(C)=O)cc1 [Example 216, {4-[3-(4-Acetylamino-phenyl)-thioureido]-2-chloro-5-methoxy-phenoxy}-acetic acid tert-butyl ester] | > 10 µg/mL | 23% | 35 µg/mL (≈ 72.9 µM) | > 10 µg/mL |  |  |  | 
CC(=O)Nc1ccc(NC(=S)Nc2ccc(N(C)CCCN(C)C)c(Cl)c2)cc1 [Example 298, N-[4-(3-{3-Chloro-4-[(3-dimethylamino-propyl)-methyl-amino]-phenyl}-thioureido)-phenyl]-acetamide] | > 10 µg/mL | 1% | > 50 µg/mL | 15 µg/mL (≈ 34.6 µM) |  |  |  | 
COc1cc(OC)c(NC(=S)Nc2cc(OC)c(NC(C)=O)cc2OC)cc1Cl [Example 261, N-{4-[3-(5-Chloro-2,4-dimethoxy-phenyl)-thioureido]-2,5-dimethoxy-phenyl}-acetamide] | > 10 µg/mL | 1% | > 10 µg/mL | > 10 µg/mL |  |  |  | 
COc1ccc(NC(=S)Nc2ccc(NC(C)=O)cc2)cc1C(F)(F)F [Example 290, N-{4-[3-(4-Methoxy-3-trifluoromethyl-phenyl)-thioureido]-phenyl}-acetamide] | > 10 µg/mL | 1% | > 50 µg/mL | 5 µg/mL (≈ 13 µM) |  |  |  | 
CC(=O)Nc1ccc(NC(=S)Nc2ccc(N3CCCC3)c(Cl)c2)cc1 [Example 242, N-{4-[3-(3-Chloro-4-pyrrolidin-1-yl-phenyl)-thioureido]-phenyl}-acetamide] | > 10 µg/mL | 20% | 50 µg/mL (≈ 129 µM) | > 10 µg/mL |  |  |  | 
COc1cc(C)c(Cl)cc1NC(=S)Nc1ccc(NC(C)=O)cc1 [Example 199, N-{4-[3-(5-Chloro-2-methoxy-4-methyl-phenyl)-thioureido]-phenyl}-acetamide] | > 15 µg/mL | 60% | 1.2 µg/mL (≈ 3.3 µM) | > 10 µg/mL |  |  |  | 
CCCN(CCC)c1ccc(NC(=S)Nc2ccc(NC(C)=O)cc2)cc1Cl [Example 272, N-{4-[3-(3-Chloro-4-dipropylamino-phenyl)-thioureido]-phenyl}-acetamide] | > 10 µg/mL | 50% | > 50 µg/mL | > 10 µg/mL |  |  |  | 
COc1c(Cl)cc(NC(=S)Nc2ccc(NC(C)=O)cc2)cc1Cl [Example 109, N-{4-[3-(3,5-Dichloro-4-methoxy-phenyl)-thioureido]-phenyl}-acetamide] | > 10 µg/mL | 27% | > 10 µg/mL | 0.4 µg/mL (≈ 1.04 µM) |  |  |  | 
CC(=O)Nc1ccc(NC(=S)Nc2ccc(N(C)C3CCN(C)CC3)c(Cl)c2)cc1 [Example 841, N-[4-(3-{3-Chloro-4-[methyl-(1-methyl-piperidin-4-yl)-amino]-phenyl}-thioureido)-phenyl]-acetamide] | > 10 µg/mL | 30% | > 50 µg/mL | 0.9 µg/mL (≈ 2.02 µM) |  |  |  | 
CC(=O)Nc1ccc(NC(=S)Nc2ccc(N(C)C3CCN(Cc4ccccc4)C3)c(Cl)c2)cc1 (centres unmarked) [Example 843, N-[4-(3-{4-[(1-Benzyl-pyrrolidin-3-yl)-methyl-amino]-3-chloro-phenyl}-thioureido)-phenyl]-acetamide] | > 10 µg/mL | 50% | 5 µg/mL (≈ 9.84 µM) | 0.7 µg/mL (≈ 1.38 µM) |  |  |  | 
N-{4-[3-(4-Acetylamino-phenyl)-thioureido]-2-chloro-phenyl}-2-pyrrolidin-1-yl-acetamide [Example 415] |  |  |  |  | 26% | 4.5 Ug/ml | >10 Ug/ml | >10 Ug/ml
CC(=O)Nc1ccc(NC(=S)Nc2cccc(Cl)c2Cl)cc1 [Example 926, N-{4-[3-(2,3-Dichloro-phenyl)-thioureido]-phenyl}-acetamide] | > 10 µg/mL | 16% | > 10 µg/mL | 10 µg/mL (≈ 28.2 µM) |  |  |  | 
COc1cc(OC)c(C(F)(F)F)cc1NC(=S)Nc1ccc(NC(C)=O)cc1 [Example 131, N-{4-[3-(2,4-Dimethoxy-5-trifluoromethyl-phenyl)-thioureido]-phenyl}-acetamide] | > 10 µg/mL | 53% | 15 µg/mL (≈ 36.3 µM) | < 50 µg/mL |  |  |  | 
CSc1ccc(NC(=S)Nc2ccc(NC(C)=O)cc2)cc1Cl [Example 840, N-{4-[3-(3-Chloro-4-methylsulfanyl-phenyl)-thioureido]-phenyl}-acetamide] | > 10 µg/mL | 0% | 1.5 µg/mL (≈ 4.1 µM) | 0.4 µg/mL (≈ 1.09 µM) |  |  |  | 
CCN(CC)c1ccc(NC(=S)Nc2ccc(NC(C)=O)cc2)cc1Cl [Example 202, N-{4-[3-(3-Chloro-4-diethylamino-phenyl)-thioureido]-phenyl}-acetamide] | > 10 µg/mL | 18% | 3 µg/mL (≈ 7.67 µM) | > 10 µg/mL |  |  |  | 
CC(=O)Nc1ccc(NC(=S)Nc2ccc(N(C)CCO)c(Cl)c2)cc1 [Example 291] |  |  |  |  | 18% | >10 Ug/ml | >50 Ug/ml | 6 Ug/ml
CC(=O)Nc1ccc(NC(=S)Nc2ccc(OC3CCN(C)CC3)c(Cl)c2)cc1 [Example 335, N-(4-{3-[3-Chloro-4-(1-methyl-piperidin-4-yloxy)-phenyl]-thioureido}-phenyl)-acetamide] | > 10 µg/mL | 8% | 30 µg/mL (≈ 69.3 µM) | 30 µg/mL (≈ 69.3 µM) |  |  |  | 
COc1ccc(Cl)c(NC(=S)Nc2ccc(NC(C)=O)cc2)c1 [Example 881, N-{4-[3-(2-Chloro-5-methoxy-phenyl)-thioureido]-phenyl}-acetamide] | > 10 µg/mL | 12% | 40 µg/mL (≈ 114 µM) | > 50 µg/mL |  |  |  | 
CC(=O)Nc1ccc(NC(=S)Nc2ccc(OCCCN(C)C)c(Cl)c2)cc1 [Example 336, N-(4-{3-[3-Chloro-4-(3-dimethylamino-propoxy)-phenyl]-thioureido}-phenyl)-acetamide] | > 10 µg/mL | 17% | 40 µg/mL (≈ 95 µM) | 50 µg/mL (≈ 119 µM) |  |  |  | 
